{"source": "patent US8889173B2", "about": "“Alpha adrenergic receptor agonists for treatment of pain and/or inflammation” (Warsaw Orthopedic, Inc., priority 2008, dated 2014)", "key": {"[1]": {"system": "rat Chronic Constriction Injury model (Bennett Model)", "experiment": "Hargreaves test of thermal hyperalgesia (thermal paw withdrawal latency) in rat chronic constriction injury model", "format": "in vivo, Wistar rat", "excerpt": "(§1) The inventors evaluated the efficacy of a various alpha-2-adrenergic receptor agonists and compared them against saline in the rat Chronic Constriction Injury model (i.e., Bennett Model) using Wistar rats. […] The doses given would mimic those achievable by a continuous release drug depot containing a biodegradable polymer (7 rats in each group).\n(§2) Each group received the treatment indicated above for total of 15 days and subjected to the following two tests: (1) the Hargreaves test on days 7 and 14; and (2) the von Frey test on days 8 and 15.\n(§3) Results from another rat chronic constriction injury model study similar to that discussed in Example 5, except some drug compositions having predominantly alpha 1 agonist activity and some drug compositions having predominantly alpha 2 agonist activity were given as indicated in the table below. The doses given would mimic those achievable by a continuous release drug depot containing a biodegradable polymer (7 rats in each group).\n(§4) Each group received the treatment indicated above for total of 14 days and the following two tests: (1) the Hargreaves test on days 7 and 14; and (2) the von Frey test on days 8 and 15."}, "[2]": {"system": "rat Chronic Constriction Injury model (Bennett Model)", "experiment": "von Frey monofilament test of mechanical allodynia (mechanical threshold) in rat chronic constriction injury model", "format": "in vivo, Wistar rat", "excerpt": "as §1, §2, §3, §4"}, "[3]": {"conditions": "5 mg/kg subcutaneous every day for 15 days, day 15, vs saline"}, "[4]": {"conditions": "100 micrograms/kg subcutaneous every day for 15 days, days 7 and 14, FIG. 36"}}}
{"smiles": "N=C(N)NC(=O)Cc1c(Cl)cccc1Cl", "note": "[guanfacine]", "values": [{"measurement": "pain behavioral response for thermal hyperalgesia", "setting": "[1]; 5 mg/kg subcutaneous every day for 15 days, days 7 and 14, FIG. 36", "result": "statistically significant result of decreasing pain responses"}, {"measurement": "pain behavioral response for mechanical allodynia", "setting": "[2]; [3]", "result": "statistically significant results of decreasing pain responses"}]}
{"smiles": "Clc1ccc2nsnc2c1NC1=NCCN1", "note": "[tizanidine]", "values": [{"measurement": "pain behavioral response for thermal hyperalgesia", "setting": "[1]; [4]", "result": "statistically significant result of decreasing pain responses"}, {"measurement": "pain behavioral response for mechanical allodynia", "setting": "[2]; 100 micrograms/kg subcutaneous every day for 15 days, day 15, vs saline, FIG. 35", "result": "statistically significant results of decreasing pain responses"}]}
{"smiles": "Clc1cccc(Cl)c1N=C1NCCN1", "note": "[clonidine, 2,6-dichloro-N-2-imidazolidinyldenebenzenamine]", "values": [{"measurement": "pain behavioral response for thermal hyperalgesia", "setting": "[1]; 0.02 mg/kg subcutaneous every day for 15 days, days 7 and 14", "result": "statistically significant result of decreasing pain responses"}, {"measurement": "pain behavioral response for mechanical allodynia", "setting": "[2]; 0.02 mg/kg subcutaneous every day for 15 days, day 15, vs saline, FIG. 35", "result": "statistically significant results of decreasing pain responses"}, {"measurement": "pain behavioral response (measured as a percentage of baseline) for mechanical allodynia", "setting": "[2]; 0.02 mg/kg/day subcutaneously, compared to unloaded polymer depots, FIG. 4", "result": "reduced the behavioral response"}]}
{"smiles": "Cc1cccc(C(C)c2cnc[nH]2)c1C", "note": "(centres unmarked) [medetomidine]", "values": [{"measurement": "pain behavioral response for thermal hyperalgesia", "setting": "[1]; [4]", "result": "statistically significant result of decreasing pain responses"}, {"measurement": "pain behavioral response for thermal hyperalgesia", "setting": "[1]; 200 micrograms/kg subcutaneous every day for 15 days, day 14, FIG. 36", "result": "statistically significant result of decreasing pain responses"}, {"measurement": "pain behavioral response for mechanical allodynia", "setting": "[2]; 200 micrograms/kg subcutaneous every day for 15 days, day 15, vs saline, FIG. 35", "result": "statistically significant results of decreasing pain responses"}]}
{"smiles": "N=C(N)N/N=C/c1c(Cl)cccc1Cl", "note": "[guanabenz]", "values": [{"measurement": "pain behavioral response for thermal hyperalgesia", "setting": "[1]; 1 mg/kg subcutaneous every day for 15 days, day 7, FIG. 37", "result": "statistically significant result of decreasing pain responses"}, {"measurement": "pain behavioral response for mechanical allodynia", "setting": "[2]; 1 mg/kg subcutaneous every day, day 8, vs saline, FIG. 38", "result": "decreased mechanical allodynia"}, {"measurement": "pain behavioral response for mechanical allodynia", "setting": "[2]; [3]", "result": "decreased mechanical allodynia"}]}
{"smiles": "Cc1cc(C(C)(C)C)c(O)c(C)c1CC1=NCCN1", "note": "[oxymetazoline]", "values": [{"measurement": "pain behavioral response for thermal hyperalgesia", "setting": "[1]; 0.1 mg/kg subcutaneous every day for 15 days, day 7, FIG. 37", "result": "statistically significant result of decreasing pain responses"}, {"measurement": "pain behavioral response for thermal hyperalgesia", "setting": "[1]; 0.3 mg/kg subcutaneous every day for 15 days, days 7 and 14, FIG. 37", "result": "statistically significant result of decreasing pain responses"}, {"measurement": "pain behavioral response for mechanical allodynia", "setting": "[2]; 0.1 mg/kg subcutaneous every day for 15 days, day 8 and 15, vs saline group, FIG. 38", "result": "decreasing pain responses"}, {"measurement": "pain behavioral response for mechanical allodynia", "setting": "[2]; 0.3 mg/kg subcutaneous every day for 15 days, day 8 and 15, vs saline group, FIG. 38", "result": "decreasing pain responses"}]}
{"smiles": "CNC[C@H](O)c1cccc(O)c1", "note": "[phenylephrine]", "values": [{"measurement": "pain behavioral response for thermal hyperalgesia", "setting": "[1]; 2 mg/kg subcutaneous every day for 15 days, day 7, FIG. 37", "result": "statistically significant result of decreasing pain responses"}, {"measurement": "pain behavioral response for thermal hyperalgesia", "setting": "[1]; 10 mg/kg subcutaneous every day for 15 days, days 7 and 14, FIG. 37", "result": "statistically significant result of decreasing pain responses"}, {"measurement": "pain behavioral response for mechanical allodynia", "setting": "[2]; 10 mg/kg subcutaneous every day, day 8, vs saline, FIG. 38", "result": "decreased mechanical allodynia"}]}
